Experimental data reported in patent EP0129628A1, “Medicine, especially useful in psychiatry, which uses as the active constituent a lithium N-alkylcarbamoyl phosphate” (Richard, Marcel, priority 1983, dated 1985).

Columns and labels:
motilité = assay: motility test; format: in vivo, souris et/ou des chiens; conditions: dose de 13,5 MEq par kilo (carbonate de lithium: dose correspondante)
sécrétion de sérotonine = assay: test on serotonin secretion; format: in vivo, souris et/ou des chiens
[1] = tested on: systèmes dopaminer- gines; assay: test evaluating blockade of the dopaminergic systems; format: in vivo, souris et/ou des chiens
test plaque chaude = assay: comparative analgesic activity (hot plate test); format: in vivo, souris et/ou des chiens; conditions: dose de 13 MEq par kilo
[2] = tested on: convulsions produites par un électrochoc; assay: convulsions produced by electroshock; format: in vivo, souris et/ou des chiens; conditions: dose de 5 MEq par kilo
[3] = tested on: agressivité induite par des chocs électriques; assay: aggressiveness induced by electric shocks; format: in vivo, souris et/ou des chiens
[4] = acute toxicity (DL50), oral route; conditions: mouse, in vivo, souris, par voie orale
Description: L'invention concerne enfin les médicaments qui contiennent au moins un produit de formule (1). Il a été trouvé en effet que les produits de formule (1) avaient une toxicité faible (la DL50 pour la souris et pour le produit de formule 1 dans lequel R est CH3 étant environ 3 200 mg/kg par voie orale) et une activité pharmacologique qui peut s'exprimer comme suit : • - diminution et/ou blocage des systèmes dopaminer- giques, • - augmentation, au moins transitoire, de la systhè- se de la sérotonine, • - pouvoir analgésique, les conséquences de ces actions se retrouvant dans les constatations suivantes : • - diminution de l'agressivité, • - diminution de la motilité et de la curiosité, • - protection contre les convulsions.

| SMILES | la motilité baisse (motilité) | dose active après 24 heures (sécrétion de sérotonine) | dose active à 100 % [1] | protection (test plaque chaude) | protection des sujets [2] | dose active [3] | LD50 [4] | dose active à 50 % [1] |
| --- | --- | --- | --- | --- | --- | --- | --- | --- |
| CNC(=O)OP(=O)(O)O [N-méthyl-carbamoylphosphate de lithium] | 36% | 6,75 MEq par kilo | 6,75 MEq par kilo | 42% | 40% | 10 MEq par kilo | ~3200 mg/kg | – |
| O=C(O)O [carbonate de lithium, reference compound] | 12% | 10 MEq par kilo | – | 27% | – | – | – | 10,115 MEq par kilo |
